In ChEMBL document CHEMBL1144290, “Discovery and structure-activity relationships of novel selective norepinephrine and dual serotonin/norepinephrine reuptake inhibitors” (Bioorg Med Chem Lett, 2005):

What was measured:
[1] = Inhibitory constant determined against Norepinephrine transporter
[2] = molecular target: Sodium-dependent serotonin transporter (Homo sapiens) (UniProt P31645); assay: Displacement of serotonin by the compound against serotonin transporter was determined
[3] = molecular target: Sodium-dependent dopamine transporter (Homo sapiens) (UniProt Q01959); assay: Displacement of dopamine by the compound against dopamine transporter was determined at 1000 nM
Sodium-dependent dopamine transporter (Homo sapiens), sequence (Q01959 whole entry): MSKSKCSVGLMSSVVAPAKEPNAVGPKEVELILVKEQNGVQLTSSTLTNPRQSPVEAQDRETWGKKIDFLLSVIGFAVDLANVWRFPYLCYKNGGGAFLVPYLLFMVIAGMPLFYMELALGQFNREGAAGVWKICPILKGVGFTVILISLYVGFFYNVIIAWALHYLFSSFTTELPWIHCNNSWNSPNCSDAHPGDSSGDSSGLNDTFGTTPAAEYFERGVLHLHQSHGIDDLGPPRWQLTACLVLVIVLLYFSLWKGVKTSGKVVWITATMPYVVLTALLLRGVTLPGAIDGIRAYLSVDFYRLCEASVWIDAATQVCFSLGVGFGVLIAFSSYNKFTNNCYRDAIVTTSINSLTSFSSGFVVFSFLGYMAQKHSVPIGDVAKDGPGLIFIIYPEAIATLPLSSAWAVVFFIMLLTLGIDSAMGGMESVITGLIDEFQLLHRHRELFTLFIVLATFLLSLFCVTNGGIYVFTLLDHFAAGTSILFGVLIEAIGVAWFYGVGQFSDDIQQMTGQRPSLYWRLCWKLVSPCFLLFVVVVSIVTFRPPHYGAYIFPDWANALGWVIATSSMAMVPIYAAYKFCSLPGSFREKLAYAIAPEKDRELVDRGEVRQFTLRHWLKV

[4] = Inhibitory constant against Serotonin transporter
[5] = Inhibitory constant against Dopamine transporter

Sodium-dependent serotonin transporter (Homo sapiens), sequence (P31645 whole entry, looked up): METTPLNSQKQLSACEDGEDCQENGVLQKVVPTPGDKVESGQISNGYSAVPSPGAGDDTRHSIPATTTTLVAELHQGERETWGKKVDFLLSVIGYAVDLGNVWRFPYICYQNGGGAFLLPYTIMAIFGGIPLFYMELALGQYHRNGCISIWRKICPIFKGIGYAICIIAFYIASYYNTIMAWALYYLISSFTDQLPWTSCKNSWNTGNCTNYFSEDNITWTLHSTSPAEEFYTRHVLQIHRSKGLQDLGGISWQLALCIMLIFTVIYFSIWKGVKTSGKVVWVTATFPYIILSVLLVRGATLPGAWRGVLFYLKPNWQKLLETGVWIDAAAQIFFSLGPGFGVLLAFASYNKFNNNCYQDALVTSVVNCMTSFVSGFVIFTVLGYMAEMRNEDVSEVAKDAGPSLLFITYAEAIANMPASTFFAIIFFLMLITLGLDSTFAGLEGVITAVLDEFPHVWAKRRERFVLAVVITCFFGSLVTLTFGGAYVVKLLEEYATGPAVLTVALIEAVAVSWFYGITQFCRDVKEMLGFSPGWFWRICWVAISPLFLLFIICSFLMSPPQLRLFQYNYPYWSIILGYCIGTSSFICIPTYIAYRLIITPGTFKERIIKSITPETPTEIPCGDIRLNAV

Compound	Ki [1] [nM]	Ki [2] [nM]	Ki [3] [nM]	Ki [4] [nM]	Ki [5] [nM]
COc1ccccc1S[C@@H](c1ccccc1)[C@@H]1CNCCO1 (stereo in doubt; form 2) [listing 2 of 2 here]	24.6	–	–	1.5	–
Cc1cccc(S[C@@H](c2ccccc2)[C@@H]2CNCCO2)c1	109	–	> 200	3.2	–
CCOc1ccccc1O[C@@H](c1ccccc1)[C@@H]1CNCCO1	–	> 100	> 200	–	–
COc1ccccc1S[C@@H](c1ccccc1)[C@@H]1CNCCO1 (stereo in doubt; 14) [listing 2 of 2 here]	–	–	> 200	–	–
Cc1ccccc1S[C@@H](c1ccccc1)[C@@H]1CNCCO1	8.3	–	–	0.2	227

Next, values leading:

Ki [1] [nM]	Ki [2] [nM]	Ki [3] [nM]	Ki [4] [nM]	Ki [5] [nM]	Compound
364	> 100	> 200	–	–	Cc1ccc(S[C@@H](c2ccccc2)[C@@H]2CNCCO2)cc1
–	–	> 200	–	–	COc1ccccc1S[C@@H](c1ccccc1)[C@@H]1CNCCO1 (stereo in doubt; form 2) [listing 1 of 2 here]
–	–	> 200	–	–	COc1ccccc1S[C@@H](c1ccccc1)[C@@H]1CNCCO1 (stereo in doubt; form 1) [listing 1 of 2 here]
10.7	–	–	1.2	–	COc1ccccc1S[C@@H](c1ccccc1)[C@@H]1CNCCO1 (stereo in doubt; 14) [listing 1 of 2 here]
1.7	–	–	66.2	–	COc1ccccc1S[C@@H](c1ccccc1)[C@@H]1CNCCO1 (stereo in doubt; form 1) [listing 2 of 2 here]
17.6	–	–	36	522	c1ccc(S[C@@H](c2ccccc2)[C@@H]2CNCCO2)cc1
